Experimental data: US11117926B2, “Cholane derivatives for use in the treatment and/or prevention of FXR and TGR5/GPBAR1 mediated diseases” (BAR PHARMACEUTICALS S.R.L., priority 2014, dated 2021)

How the values were obtained:
[1] = patients suffering from primary biliary cirrhosis (PBC), clinical trials; cited from earlier work
[2] = target: T1, intestinal bile acid carrier (Homo sapiens, UniProt Q12908); settings: CaCo-2 cells; cited from earlier work
T1 construct: host or cells: CaCo-2
T1 sequence (Q12908 1-348): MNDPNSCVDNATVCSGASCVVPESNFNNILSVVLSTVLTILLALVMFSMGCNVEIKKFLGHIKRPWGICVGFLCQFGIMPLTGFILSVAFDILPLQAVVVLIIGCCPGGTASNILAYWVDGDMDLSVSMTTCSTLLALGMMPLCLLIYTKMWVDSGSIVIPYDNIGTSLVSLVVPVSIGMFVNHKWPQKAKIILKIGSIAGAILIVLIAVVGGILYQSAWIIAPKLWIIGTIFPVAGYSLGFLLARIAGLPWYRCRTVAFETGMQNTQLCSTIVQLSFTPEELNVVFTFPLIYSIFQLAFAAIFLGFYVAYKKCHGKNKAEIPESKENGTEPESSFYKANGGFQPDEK

human GPBAR1 = target: T2, human GPBAR1 (Homo sapiens, UniProt Q8TDU6); test: GPBAR1 mediated transactivation (CRE luciferase reporter) in transfected HEK-293T cells; assay type: cell-based; settings: each compound at 10 microM, transactivation activity of TLCA on CRE = 100%
T2 construct: expressed in transfected cells; host or cells: HEK-293T
T2 sequence (Q8TDU6 1-330): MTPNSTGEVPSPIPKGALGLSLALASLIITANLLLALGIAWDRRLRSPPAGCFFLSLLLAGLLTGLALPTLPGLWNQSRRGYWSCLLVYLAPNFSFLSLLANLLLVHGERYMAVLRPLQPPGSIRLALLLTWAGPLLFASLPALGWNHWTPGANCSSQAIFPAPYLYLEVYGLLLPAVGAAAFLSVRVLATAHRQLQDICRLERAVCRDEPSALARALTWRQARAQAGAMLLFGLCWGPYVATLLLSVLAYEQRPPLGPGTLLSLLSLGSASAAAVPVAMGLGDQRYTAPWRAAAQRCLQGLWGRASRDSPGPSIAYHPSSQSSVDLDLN
Experimental: (§1) Each compound was tested at the concentration of 10 microM and transactivation activity of CDCA on FXR and TLCA on CRE (i.e. TGR5/GPBAR1) was considered equal to 100%.
(§2) Biological Activities. Activity of selected compounds was tested in vitro using a whole cell model transfected with a reporter genes to establish selectivity of compounds shown in table 1 toward FXR and TGR5/GPBAR1 in comparison with chenodeoxycholic acid (CDCA) and TLCA. CDCA is a primary bile acid that functions as an endogenous ligand for FXR, while TLCA is a physiological ligand for TGR5/GPBAR1. In this assay, HepG2 cells (a liver-derived cell line) were cultured at 37° C. in minimum essential medium with Earl's salts containing 10% fetal bovine serum (FBS), 1% L-glutamine, and 1% penicillin/streptomycin. […] The transfection experiments were performed using Fugene HD according to manufactured specifications. Cells were plated in a 24-well plate at 5×10^4 cells/well. For FXR mediated transactivation, HepG2 cells were transfected with 100 ng of pSG5-FXR, 100 ng of pSG5-RXR, 100 ng of pGL4.70 a vector encoding the human Renilla gene and 250 ng of the reporter vector p(hsp27)-TK-LUC containing the FXR response element IR1 cloned from the promoter of heat shock protein 27 (hsp27).
(§3) At 24 h post-transfection, cells were stimulated for 18 h with 10 μM TLCA as a control agent or putative GPBAR1 agonists as the same concentration. After treatments, cells were lysed in 100 μL of lysis buffer (25 mM Tris-phosphate, pH 7.8; 2 mM DTT; 10% glycerol; 1% Triton X-100), and 20 μL of cellular lysate was assayed for luciferase activity using the luciferase assay system. Luminescence was measured using Glomax 20/20 luminometer. Luciferase activities were normalized against Renilla activities. Antagonism against FXR of GPBAR1/TGR5 was measured as percent of activity in transactivation assay suing activity of TLCA as example of agonism.

FXR = target: T3, FXR (Homo sapiens, UniProt Q96RI1); test: FXR mediated transactivation (luciferase reporter) in transfected HepG2 cells; assay type: cell-based; settings: each compound at 10 microM, transactivation activity of CDCA on FXR = 100%
T3 construct: expressed in transfected cells; host or cells: HepG2
T3 sequence (Q96RI1 1-486): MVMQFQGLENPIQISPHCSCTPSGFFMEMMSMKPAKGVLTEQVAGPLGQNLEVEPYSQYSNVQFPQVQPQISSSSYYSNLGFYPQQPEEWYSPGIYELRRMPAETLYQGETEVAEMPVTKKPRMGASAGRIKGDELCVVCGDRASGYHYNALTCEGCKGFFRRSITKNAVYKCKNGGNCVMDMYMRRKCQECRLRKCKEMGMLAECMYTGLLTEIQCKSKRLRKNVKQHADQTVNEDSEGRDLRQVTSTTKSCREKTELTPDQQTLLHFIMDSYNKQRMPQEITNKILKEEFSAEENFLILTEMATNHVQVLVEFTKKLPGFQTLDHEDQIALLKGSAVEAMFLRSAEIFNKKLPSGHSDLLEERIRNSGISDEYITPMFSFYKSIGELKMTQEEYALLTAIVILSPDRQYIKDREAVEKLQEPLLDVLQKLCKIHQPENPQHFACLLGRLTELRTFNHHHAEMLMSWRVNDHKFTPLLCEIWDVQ
T3 sequence (P19793 1-462 partner): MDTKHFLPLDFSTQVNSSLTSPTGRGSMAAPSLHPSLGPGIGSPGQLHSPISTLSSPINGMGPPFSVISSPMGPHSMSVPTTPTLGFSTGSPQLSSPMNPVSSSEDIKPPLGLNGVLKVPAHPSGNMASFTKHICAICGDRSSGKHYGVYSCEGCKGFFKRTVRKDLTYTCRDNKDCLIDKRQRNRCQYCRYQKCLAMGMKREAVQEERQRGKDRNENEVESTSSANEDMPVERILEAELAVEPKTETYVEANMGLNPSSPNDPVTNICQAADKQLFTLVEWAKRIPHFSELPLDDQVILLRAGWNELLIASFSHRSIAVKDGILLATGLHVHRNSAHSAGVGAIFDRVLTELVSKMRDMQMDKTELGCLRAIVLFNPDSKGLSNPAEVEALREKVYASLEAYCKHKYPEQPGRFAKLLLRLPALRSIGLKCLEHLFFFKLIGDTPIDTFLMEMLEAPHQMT
Experimental: as §1, §2, §3

[3] = tested on: sea lamprey (Petromyzon marinus); settings: cited from earlier work

Question: With `CC[C@H]1[C@@H](O)[C@@H]2[C@H](CC[C@]3(C)[C@@H]([C@H](C)CCC(=O)O)CC[C@@H]23)[C@@]2(C)CC[C@@H](O)C[C@@H]12` [obeticholic acid] as the compound, how does the “patients with severe itching” value [1] read?
Answer: approximately 80%

Question: For `C[C@H](CC(=O)O)[C@H]1CCC2C3CC[C@@H]4CCCC[C@]4(C)C3CC[C@@]21C` (stereo partly shown) [BARn406], which “ability to inhibit taurocholic acid transport” value [2] is on record?
Answer: undetectable

Question: And the “GPBAR1 (% of activity in comparison to 10 μM TLCA)” value (human GPBAR1)?
Answer: 4.8 ± 1.8%

Question: What about the “FXR (% of activity in comparison to 10 μM CDCA)” value (FXR) of the same compound?
Answer: 27.0 ± 1.5%

Question: With `C[C@H](CCCOS(=O)(=O)O)[C@H]1CCC2C3CC[C@@H]4CCCC[C@]4(C)C3CC[C@@]21C` (stereo partly shown) [BAR407] as the compound, how does the “GPBAR1 (% of activity in comparison to 10 μM TLCA)” value (human GPBAR1) read?
Answer: 37.3 ± 2.5%

Question: What about the olfactory response [3] of the same compound?
Answer: did not to elicit an olfactory response

Question: And the “FXR (% of activity in comparison to 10 μM CDCA)” value (FXR)?
Answer: 177.1 ± 3.5%
